Data on 17 compounds can be found in patent publication US9029409B2, “Isoxazolines as therapeutic agents” (AbbVie Inc., priority 2011, dated 2015).

SMILES strings stand for the structures. Where only a bound is given, the exact number is not on record here.

The assay addresses T1, recombinant human MMP13 catalytic domain (CD) (Homo sapiens, UniProt P45452).
T1 construct: catalytic domain (CD) construct encompassing residues 20-274 (SWISS-PROT P45452); made in house
Nature of the assay: MMP-13 catalytic domain FRET enzyme assay. Format: biochemical. The conditions noted are these: recombinant human MMP-13 catalytic domain. An outline of the steps: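 Human MMP-13 catalytic domain (res 20-274, E. coli-expressed), 0.4 nM, cleaving FRET peptide (0.25 μM) in Tris pH 7.5/CaCl2/NaCl/Brij 35, 5% DMSO, 60 min RT; EDTA-quenched, fluorescence 485/535 nm. IC50 from sigmoidal fit of % inhibition. Some compounds also run on APMA-activated full-length MMP13 (2 nM).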

For the compound `Cc1nc(C(=O)NCc2ccc(F)c(Cl)c2)cc(C2=NO[C@H]([C@H]3CO[C@@H](CO)CO3)C2)n1` [drawing 924], the IC50 was greater than 1000 nM.

As to `Cc1nc(C(=O)NCc2ccc(F)c(Cl)c2)cc(C2=NO[C@H]([C@H]3CO[C@@H](CO)CO3)C2)n1` [drawing 925], the IC50 is 10 to 100 nM.

On to `Cc1nc(C(=O)NCc2ccc(F)c(F)c2)cc(C2=NO[C@H]([C@H]3CO[C@H](CO)CO3)C2)n1` [drawing 952], for which the IC50 lay within 10 to 100 nM.

For `Cc1nc(C(=O)NCc2ccc(F)c(F)c2)cc(C2=NO[C@H]([C@H]3CO[C@H](CO)CO3)C2)n1` [drawing 953], the IC50 is greater than 1000 nM.

Consider `Cc1nc(C(=O)NCc2ccc(F)c(C)c2)cc(C2=NOC(c3ccc(=O)n(C)c3)C2)n1` (centres unmarked) [drawing 990], for which the IC50 was less than 10 nM.

With `Cc1nc(C(=O)NCc2ccc(F)c(C)c2)cc(C2=NOC(c3ccc(=O)n(C)c3)C2)n1` (centres unmarked) [drawing 1015], the IC50 was less than 10 nM.

`COc1cc(CNC(=O)c2cc(C3=NO[C@H]([C@H]4CC[C@H](NC(C)=O)CC4)C3)nc(C)n2)ccc1F` [drawing 1031]: the IC50 was less than 10 nM.

Regarding `COc1cc(CNC(=O)c2cc(C3=NO[C@H]([C@H]4CC[C@H](NC(C)=O)CC4)C3)nc(C)n2)ccc1F` [drawing 1032], the IC50 lay in the range of 10 to 100 nM.

`COc1cc(CNC(=O)c2cc(C3=NO[C@@H]([C@H]4CO[C@H](CO)CO4)C3)nc(C)n2)ccc1F` [drawing 1055]: the IC50 fell in the range of 100 to 1000 nM.

As to `COc1cc(CNC(=O)c2cc(C3=NOC(C4CCN(C(=O)N(C)C)CC4)C3)nc(C)n2)ccc1F` (centres unmarked) [drawing 1061], the IC50 was less than 10 nM.

Turning to `CCNC(=O)N1CCC(C2CC(c3cc(C(=O)NCc4ccc(F)c(OC)c4)nc(C)n3)=NO2)CC1` (centres unmarked) [drawing 1062], the IC50 is 10 to 100 nM.

As to `COc1cc(CNC(=O)c2cc(C3=NOC(C4CCN(C(=O)C5CC5)CC4)C3)nc(C)n2)ccc1F` (centres unmarked) [drawing 1063], the IC50 was in the range of 10 to 100 nM.

As for `COc1cc(CNC(=O)c2cc(C3=NOC(C4CCN(C(=O)CNC(C)=O)CC4)C3)nc(C)n2)ccc1F` (centres unmarked) [drawing 1064], the IC50 is 10 to 100 nM.

`COc1cc(CNC(=O)c2cc(C3=NOC(C4CCN(C(=O)CC#N)CC4)C3)nc(C)n2)ccc1F` (centres unmarked) [drawing 1065]: the IC50 lay in the range of 10 to 100 nM.

Regarding `COc1cc(CNC(=O)c2cc(C3=NOC(C4CCN(C(=O)NCCO)CC4)C3)nc(C)n2)ccc1F` (centres unmarked) [drawing 1067], the concentration for half-maximal inhibition (IC50) was less than 10 nM.

As to `Cc1nc(C(=O)NCc2ccc(F)c(Cl)c2)cc(C2=NO[C@H]([C@H]3CO[C@H](CO)CO3)C2)n1` [drawing 1069], the IC50 was 10 to 100 nM.

In the case of `Cc1nc(C(=O)NCc2ccc(F)c(Cl)c2)cc(C2=NO[C@@H]([C@H]3CO[C@H](CO)CO3)C2)n1` [drawing 1070], the IC50 is greater than 1000 nM.
